The source of these data is article PMC11952846, “The sterol-regulating human ARV1 binds cholesterol and phospholipids through its conserved ARV1 homology domain” (The Journal of Biological Chemistry, 2025).

One experiment addresses T1, 6XHIS-ARV1-N98 D72A (Homo sapiens, UniProt Q9H2C2, D72A).
T1 construct: Expressing amino-terminal 98 amino acids of ARV1; made in house; host or cells: E. coli BL21 (pET-28a(+))
The experiment is described as follows: Lipid overlay far western, site-directed mutant. Type of experiment: binding. The note with it: compared to the ARV1-N98 protein. The gist of the method: (§1)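 Tagged ARV1 at 0.5 μg/ml, 1 h RT, in 3% TBST-BSA + 0.1% Triton X-100 on lipid overlays pre-blocked in TBST-BSA pH 7.5. Anti-tag mAb 1:1000, 1 h RT; chemiluminescent readout.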

The next experiment addresses T2, 6XHIS-ARV1-N98 N94Q (Homo sapiens, UniProt Q9H2C2, N94Q).
T2 construct: Expressing amino-terminal 98 amino acids of ARV1; made in house; host or cells: E. coli BL21 (pET-28a(+))
T2 sequence (Q9H2C2 1-98 N94Q): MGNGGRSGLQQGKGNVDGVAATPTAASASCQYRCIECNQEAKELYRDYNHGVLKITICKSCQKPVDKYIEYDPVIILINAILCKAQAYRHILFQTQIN
The experiment is described as follows: Lipid overlay far western, site-directed mutant. Format: binding. The note with it: compared to the ARV1-N98 protein. In short, it runs like this: as §1

The next experiment has as its target T3, 6XHIS-ARV1-N98 E70A (Homo sapiens, UniProt Q9H2C2, E70A).
T3 construct: Expressing amino-terminal 98 amino acids of ARV1; made in house; host or cells: E. coli BL21 (pET-28a(+))
The experiment is described as follows: Lipid overlay far western, site-directed mutant. The note with it: compared to the ARV1-N98 protein. Type of experiment: binding. In short, it runs like this: as §1

The next experiment concerns the target T4, 6XHIS-ARV1-N98 C58/C61A (Homo sapiens, UniProt Q9H2C2, C58A/C61A).
T4 construct: Expressing amino-terminal 98 amino acids of ARV1; made in house; host or cells: E. coli BL21 (pET-28a(+))
T4 sequence (Q9H2C2 1-98 C58A/C61A): T2 sequence (Q9H2C2 1-98 N94Q) with C58A, C61A, Q94N
The experiment is described as follows: Lipid overlay far western, site-directed mutant. Format: binding. The settings on record: compared to the ARV1-N98 protein. The gist of the method:
as §1

The next experiment deals with T5, 6XHIS-ARV1-N98 K54/K59A (Homo sapiens, UniProt Q9H2C2, K54A/K59A).
T5 construct: Expressing amino-terminal 98 amino acids of ARV1; made in house; host or cells: E. coli BL21 (pET-28a(+))
T5 sequence (Q9H2C2 1-98 K54A/K59A): T2 sequence (Q9H2C2 1-98 N94Q) with K54A, K59A, Q94N
The experiment is described as follows: Lipid overlay far western, site-directed mutant. Type of experiment: binding. The note with it: compared to the ARV1-N98 protein. In short, it runs like this: as §1

Another experiment deals with T6, 6XHIS-N98 K84A (Homo sapiens, UniProt Q9H2C2, K84A).
T6 construct: made in house; host or cells: E. coli BL21
T6 sequence (Q9H2C2 1-98 K84A): T2 sequence (Q9H2C2 1-98 N94Q) with K84A, Q94N
The experiment is described as follows: HTRF phospholipid lipid-binding assay, mutant. Details: key to Bio-PL, EC50, M ± S.D.: NC, no change. The note with it: biotinylated lipid, NC = no change vs N98. An excerpt: (§2) An HTRF assay was developed for 6XHIS-ARV1-N98-lipid binding. HTRF measures analyte interactions through fluorescence resonance energy transfer technology and time-resolved measurements ([53]). The interaction between two molecules can be quantified through binding each individual molecule involved with a fluorescent label and then analyzing the transfer of energy between the initial donor fluorophore and the secondary acceptor fluorophore. Following excitation of the first fluorophore, transfer of energy can only occur if the molecules bound with the fluorescent tags are within proximity to each other.
(§3) Assays were plated in 384-well flat bottom microplates (Greiner Bio, catalog #784075-25). Proteins were diluted using binding buffer (20 mM Hepes buffer, pH 7.2, containing 0.1% BSA, and 0.01% Tween20) to a stock concentration of 0.75 μM, and biotinylated phospholipids were dispensed, dried under nitrogen gas, and resuspended in binding buffer to a stock concentration of 50 μM. The lipid stock solution was diluted by 1:2 for a series of 12 serial dilutions. For the assay, in sequential order, 6 μl of binding buffer was loaded into the plate in triplicate for each dilution of phospholipid. To this, 2 μl of 0.75 μM 6XHIS-ARV1-N98 was added, followed by 2 μl of biotinylated phospholipid. Immediately following each addition loaded into the plate, the plate was centrifuged for 1 min at 1000 rpm to bring the contents to the bottom of the well. Next, detection antibodies were mixed with detection buffer (20 mM Hepes buffer, pH 8.5, containing 0.01% BSA and 200 mM KF). Antibodies were a MAb anti-6XHIS Europium kryptate-conjugated D1 fluorescent antibody (Cisbio, #61HISKLA) and Streptavidin-conjugated d2 fluorescent antibody (Cisbio, #610SADLA). For each 1000 μl of detection buffer, 5 μl of each antibody was added just prior to loading 10 μl into each well. The plate was again centrifuged for 1 min at 1000 rpm and stored in a sealed container overnight, in the dark. Plates were read on a PerkinElmer EnVision Xcite Multilabel plate reader.
(§4) Curves were logarithmically transformed and normalized to a common scale before being fit with a nonlinear regression of the agonist against the normalized response. This generated half maximal effective concentration values (EC50; M) that could then be compared between different lipids. In the context of our study, EC50 values were defined as a measure of protein sensitivity to binding to a particular lipid within a dose response curve. For phospholipid competition analysis, IC50; M values were determined using nonlinear regression of the inhibitor against normalized response.

The target in the next experiment is T7, 6XHIS-N98 K67A (Homo sapiens, UniProt Q9H2C2, K67A).
T7 construct: made in house; host or cells: E. coli BL21
T7 sequence (Q9H2C2 1-98 K67A): T2 sequence (Q9H2C2 1-98 N94Q) with K67A, Q94N
The experiment is described as follows: HTRF phospholipid lipid-binding assay, mutant. More on the design: key: NC, no change. The note with it: biotinylated lipid; NC = no change vs N98.
Description: as §2, §3, §4
For orientation: Time-resolved FRET reads energy transfer from a long-lived donor to a nearby acceptor.

In the next experiment the target is T8, GST-ARV1-N70 (Homo sapiens, UniProt Q9H2C2).
T8 construct: Expresses amino-terminal 70 amino acids of ARV1; made in house; host or cells: E. coli BL21 (pGEX-4T1)
T8 sequence (Q9H2C2 1-70): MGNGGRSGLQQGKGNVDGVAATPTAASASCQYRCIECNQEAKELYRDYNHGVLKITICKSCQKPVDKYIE
The experiment is described as follows: Lipid overlay far western, truncation. Format: binding. The note with it: compared to ARV1-N98. The gist of the method: as §1

Numbering of substitutions follows the chain as printed.

T1 sequence (Q9H2C2 1-98 D72A): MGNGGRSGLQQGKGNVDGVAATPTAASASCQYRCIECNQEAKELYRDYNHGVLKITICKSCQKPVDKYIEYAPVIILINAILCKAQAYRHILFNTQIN
T3 sequence (Q9H2C2 1-98 E70A): as the sequence (Q9H2C2 1-98 D72A) above, with E70A, A72D counted along it

`CCCCC/C=C\C/C=C\CCCCCCCC(=O)OC[C@H](COP(=O)(O)OCC(O)COP(=O)(O)OC[C@@H](COC(=O)CCCCCCC/C=C\C/C=C\CCCCC)OC(=O)CCCCCCC/C=C\C/C=C\CCCCC)OC(=O)CCCCCCC/C=C\C/C=C\CCCCC` (stereo partly shown) [CL, cardiolipin]: the “change of lipid-protein interaction” value is recorded as “weakened” on 6XHIS-ARV1-N98 D72A, “more strongly” on 6XHIS-ARV1-N98 N94Q and “weakened” on 6XHIS-ARV1-N98 E70A.
Take `CCCCCCCC/C=C\CCCCCCCC(=O)OC[C@H](COP(=O)(O)OCC(O)CO)OC(=O)CCCCCCC/C=C\CCCCCCCC` (stereo partly shown) [PG, phosphatidylglycerol]: the “change of lipid-protein interaction” value is reported as “weakened” at 6XHIS-ARV1-N98 D72A; “more strongly” on 6XHIS-ARV1-N98 N94Q; “weakened or eliminated” on 6XHIS-ARV1-N98 C58/C61A; “abolished” on 6XHIS-ARV1-N98 K54/K59A; “weakened” on 6XHIS-ARV1-N98 E70A. In addition, the “Bio-PL, EC50, M ± S.D.” value is given as “reduced” at 6XHIS-N98 K84A and “reduced PG binding” at 6XHIS-N98 K67A.
For the compound phosphatidylethanolamine [PE], the EC50 on 6XHIS-N98 K84A (read-out: Bio-PL, EC50, M ± S.D.) stood at 210 nM.
Consider phosphatidylcholine [PC], for which the “Bio-PL, EC50, M ± S.D.” value on 6XHIS-N98 K84A and at 6XHIS-N98 K67A was “NC” in each case.
As to `CCCCCCCCCCCCCCCC(=O)OC[C@H](COP(=O)(O)O)OC(=O)CCCCCCCCCCCCCCC` [PA, phosphatidic acid], the “Bio-PL, EC50, M ± S.D.” value at 6XHIS-N98 K84A and at 6XHIS-N98 K67A was “NC” throughout.
For the compound `CCCCCCCCCCCCCCCCCC(=O)OC[C@H](COP(=O)(O)OC[C@H](N)C(=O)O)OC(=O)CCCCCCCCCCCCCCCCC` [PS, phosphatidylserine], the “change of lipid-protein interaction” value on GST-ARV1-N70 is “reduced interactions”; at 6XHIS-ARV1-N98 C58/C61A, “enhanced”. For the same compound, the “Bio-PL, EC50, M ± S.D.” value at 6XHIS-N98 K84A and on 6XHIS-N98 K67A was “NC” in each case.
With `CCCCCC(=O)O[C@H](COC(=O)CCCCCNC(=O)CCCC[C@@H]1SC[C@@H]2NC(=O)N[C@@H]21)COP(=O)(O)O[C@H]1[C@H](O)[C@@H](O)[C@H](OP(=O)(O)O)[C@@H](O)[C@H]1O` [reference compound], the entries for the “change of lipid-protein interaction” value on GST-ARV1-N70 and at 6XHIS-ARV1-N98 K54/K59A were “enhanced” and “increasing the interaction”, respectively. Moreover, the “Bio-PL, EC50, M ± S.D.” value at 6XHIS-N98 K67A is “weakened”.

Broadly, the EC50 is the concentration giving half of the maximal effect.
